According to patent publication US20240041898A9, “NEUROSTEROIDS AND ENANTIOMERS THEREOF FOR THE PREVENTION AND TREATMENT OF NEURODEGENERATIVE CONDITIONS” (priority 2019, published 2024):
Values joined by “and” are separate entries in the source; they are usually repeats but may differ in a detail not shown here. Equal entries are not always repeated.

Key:
p62 = assay: Rat in vivo OHT model, Western blot of p62; settings: in vivo OHT eyes, 3 weeks after microbead injection; relative units, control = 1.00; single values
Experimental: (§1) Example 7. Rat in vivo OHT model induced by intracameral injection of microbeads—For induction of ocular hypertension (OHT) in vivo, sterile 6 μm polystyrene microbeads were injected into the anterior chamber of the left eye of each animal using a single-step, sclero-corneal tunnel approach with a 35G nanoneedle (FIG. 4A). […] After stabilization of elevated IOP, animals were randomly divided into 3 groups (non-treated OHT, AlloP injection, and ent-AlloP injection). AlloP and ent-AlloP were administered as a one-time intravitreal injection one week following bead injection. Non-treated OHT animals received sterile vehicle intravitreally. As a further control, vehicle was intravitreally injected 7 days after intracameral administration of 10 μl of PBS. Three weeks after bead injections, IOP was 26.7±3.7 mmHg in non-treated OHT eyes compared to 9.9±0.9 mmHg in control eyes. […]

[1] = system: primary astrocyte cultures; settings: cited from earlier work
[2] = system: mouse model of Niemann-Pick Type C disease; settings: cited from earlier work
[3] = system: retinal ganglion cells (RGCs); assay: Rat in vivo OHT model, NeuN-positive RGC survival in whole mount retina; settings: OHT eyes, intravitreal, three weeks after microbead injection; single values
Experimental: as §1

| SMILES | p62 expression (FIG. 6D), individual experiments 1-4 (p62) | autophagy [1] | autophagy [2] | RGC Survival (FIG. 4N), number of NeuN-positive cells, individual 1-5 [3] |
| --- | --- | --- | --- | --- |
| CC(=O)[C@H]1CC[C@H]2[C@@H]3CC[C@H]4C[C@H](O)CC[C@]4(C)[C@H]3CC[C@]12C [AlloP, allopregnanolone] | 1.73 and 1.82 and 2.90 and 2.53 | activate autophagy | activate autophagy | 2200 per square millimeter and 2240 per square millimeter and 1940 per square millimeter and 1860 per square millimeter and 1800 per square millimeter |
| CC(=O)[C@@H]1CC[C@@H]2[C@H]3CC[C@@H]4C[C@@H](O)CC[C@@]4(C)[C@@H]3CC[C@]21C [ent-AlloP, ent-allopregnanolone] | 0.92 and 0.91 and 1.00 and 1.61 | – | – | 2060 per square millimeter and 2260 per square millimeter and 2500 per square millimeter and 2200 per square millimeter and 2460 per square millimeter |
